This is an account of results in patent US20240158412A1 (Faxian Therapeutics, LLC, priority 2021, published 2024).

The structures appear in SMILES notation.
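Note: fluorescence intensity readout of USP7 enzymatic activity, reaction incubated 90 min at room temperature.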

For the experiment, the target named is USP7 (Homo sapiens, UniProt Q93009). As to the kind of experiment: biochemical.
Sequence of USP7 (Q93009 whole entry): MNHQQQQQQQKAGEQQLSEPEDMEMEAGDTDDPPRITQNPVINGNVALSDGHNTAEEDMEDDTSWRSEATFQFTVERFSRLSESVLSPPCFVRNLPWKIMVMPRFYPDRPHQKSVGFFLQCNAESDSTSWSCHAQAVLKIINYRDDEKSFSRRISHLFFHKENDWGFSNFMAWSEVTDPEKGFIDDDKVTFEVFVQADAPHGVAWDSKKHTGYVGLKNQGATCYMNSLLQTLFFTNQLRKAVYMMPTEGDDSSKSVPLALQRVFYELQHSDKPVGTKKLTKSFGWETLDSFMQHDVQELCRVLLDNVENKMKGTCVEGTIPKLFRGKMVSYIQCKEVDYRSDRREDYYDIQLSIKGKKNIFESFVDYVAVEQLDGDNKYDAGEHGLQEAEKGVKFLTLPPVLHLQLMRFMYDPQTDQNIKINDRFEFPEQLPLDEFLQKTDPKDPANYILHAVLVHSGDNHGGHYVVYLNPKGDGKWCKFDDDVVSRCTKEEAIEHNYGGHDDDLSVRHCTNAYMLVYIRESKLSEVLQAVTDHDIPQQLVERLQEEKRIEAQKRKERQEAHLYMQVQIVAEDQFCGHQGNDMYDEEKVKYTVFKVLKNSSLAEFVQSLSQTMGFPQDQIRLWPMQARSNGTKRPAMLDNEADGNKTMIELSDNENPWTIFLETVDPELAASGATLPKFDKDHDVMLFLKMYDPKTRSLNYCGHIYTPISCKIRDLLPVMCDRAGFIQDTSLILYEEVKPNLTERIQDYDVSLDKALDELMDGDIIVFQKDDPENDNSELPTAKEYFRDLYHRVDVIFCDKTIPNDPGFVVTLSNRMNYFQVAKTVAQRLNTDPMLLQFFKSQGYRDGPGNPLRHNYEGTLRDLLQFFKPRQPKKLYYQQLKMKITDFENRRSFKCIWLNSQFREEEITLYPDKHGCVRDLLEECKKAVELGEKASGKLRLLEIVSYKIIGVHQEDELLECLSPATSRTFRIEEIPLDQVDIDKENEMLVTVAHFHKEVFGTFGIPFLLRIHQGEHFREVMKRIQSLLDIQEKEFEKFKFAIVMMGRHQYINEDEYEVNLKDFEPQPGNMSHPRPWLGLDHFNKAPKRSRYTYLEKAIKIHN
As a reminder, the IC50 is the concentration that inhibits the measured activity by half. A higher IC50 goes with a need for much substance. For the compound `N[C@H]1C[C@H](N2CCCc3cc(Cl)cc(-c4ccnc5cc(CN6C(=O)CCC6=O)sc45)c32)C1` (single isomer, unassigned) [Example 42b, trans-1-((7-(1-(3-aminocyclobutyl)-6-chloro-1,2,3,4-tetrahydroquinolin-8-yl)thieno[3,2-b]pyridin-2-yl)methyl)pyrrolidine-2,5-dione], the half-maximal inhibitory concentration (IC50) was in the range of 10 to 100 nM.
To `CO[C@@H]1CNC[C@H]1N1CCCc2cc(Cl)cc(-c3ccnc4cc(CN5C(=O)CCC5=O)sc34)c21` (single isomer, unassigned) [Example 97b] belongs less than 10 nM; to `O=C1CCC(=O)N1Cc1cc2nccc(-c3cc(Cl)cc4c3N([C@@H]3CCNC3)CCC4)c2s1` [Example 58, (R)-1-((7-(6-chloro-1-(pyrrolidin-3-yl)-1,2,3,4-tetrahydroquinolin-8-yl)thieno[3,2-b]pyridin-2-yl)methyl)pyrrolidine-2,5-dione], 10 to 100 nM.
For `O=c1ccn(CC(F)F)c(=O)n1Cc1cc2nccc(-c3cc(Cl)cc4c3N([C@H]3CCNC3)CCC4)c2s1` [Example 101, (S)-3-((7-(6-chloro-1-(pyrrolidin-3-yl)-1,2,3,4-tetrahydroquinolin-8-yl)thieno[3,2-b]pyridin-2-yl)methyl)-1-(2,2-difluoroethyl)pyrimidine-2,4(1H,3H)-dione] the value was less than 10 nM; for `C[C@]1(CO)C[C@H](N2CCCc3cc(C#N)cc(-c4ccnc5cc(CN6C(=O)CCC6=O)sc45)c32)CN1` [Example 209, 8-(2-((2,5-dioxopyrrolidin-1-yl)methyl)thieno[3,2-b]pyridin-7-yl)-1-((3S,5R)-5-(hydroxymethyl)-5-methylpyrrolidin-3-yl)-1,2,3,4-tetrahydroquinoline-6-carbonitrile], less than 10 nM; for `O=C1CCC(=O)N1Cc1cc2nccc(-c3cc(Cl)cc4c3N([C@@H]3CCNC3)CC3CC43)c2s1` (single isomer, unassigned) [Example 113a], 101 to 1000 nM.
To `CN1CC(=O)N(Cc2cc3nccc(-c4cc(Cl)cc5c4N([C@H]4CCNC4)CCC5)c3s2)C1=O` [Example 74, (S)-3-((7-(6-chloro-1-(pyrrolidin-3-yl)-1,2,3,4-tetrahydroquinolin-8-yl)thieno[3,2-b]pyridin-2-yl)methyl)-1-methylimidazolidine-2,4-dione] belongs less than 10 nM; to `N#Cc1cc2c(c(-c3ccnc4cc(Cn5c(=O)ccn(C6CC6)c5=O)sc34)c1)N([C@H]1CCNC1)CCC2` [Example 88, (S)-8-(2-((3-cyclopropyl-2,6-dioxo-2,3-dihydropyrimidin-1(6H)-yl)methyl)thieno[3,2-b]pyridin-7-yl)-1-(pyrrolidin-3-yl)-1,2,3,4-tetrahydroquinoline-6-carbonitrile], less than 10 nM; to `CC(C)(C)c1cnn(Cc2cc3nccc(-c4cc(C#N)cc5c4N([C@@H]4CN[C@@H](CO)C4)C[C@H]4C[C@@H]54)c3s2)c(=O)c1` (single isomer, unassigned) [Example 192a], less than 10 nM.
`O=c1cc(Oc2ccc(F)cc2)cnn1Cc1cc2nccc(-c3cc(Cl)cc4c3N(C3CNC3)CCC4)c2s1` [Example 36, 2-((7-(1-(azetidin-3-yl)-6-chloro-1,2,3,4-tetrahydroquinolin-8-yl)thieno[3,2-b]pyridin-2-yl)methyl)-5-(4-fluorophenoxy)pyridazin-3(2H)-one] returned an IC50 of 10 to 100 nM.
For the compound `O=c1cc(C2CC2)cnn1Cc1cc2nccc(-c3cc(Cl)cc4c3N([C@@H]3CN[C@H](CO)C3)CCC4)c2s1` [Example 187, 2-((7-(6-chloro-1-((3S,5S)-5-(hydroxymethyl)pyrrolidin-3-yl)-1,2,3,4-tetrahydroquinolin-8-yl)thieno[3,2-b]pyridin-2-yl)methyl)-5-cyclopropylpyridazin-3(2H)-one], the IC50 was less than 10 nM.
For `O=c1cc(CC(F)F)cnn1Cc1cc2nccc(-c3cc(Cl)cc4c3N([C@H]3CCNC3)CCC4)c2s1` [Example 105, (S)-2-((7-(6-chloro-1-(pyrrolidin-3-yl)-1,2,3,4-tetrahydroquinolin-8-yl)thieno[3,2-b]pyridin-2-yl)methyl)-5-(2,2-difluoroethyl)pyridazin-3(2H)-one] the value was less than 10 nM; for `CC1(C)CC(N2CCCc3cc(C#N)cc(-c4ccnc5cc(Cn6ncc(C(C)(C)C)cc6=O)sc45)c32)CN1` (stereo in doubt) [Example 132, (S)-8-(2-((4-(tert-butyl)-6-oxopyridazin-1(6H)-yl)methyl)thieno[3,2-b]pyridin-7-yl)-1-(5,5-dimethylpyrrolidin-3-yl)-1,2,3,4-tetrahydroquinoline-6-carbonitrile], less than 10 nM; for `O=C1COc2cc(Cl)cc(-c3ccnc4cc(Cn5ncc(C6CC6)cc5=O)sc34)c2N1[C@@H]1CNC2(CCC2)C1` [Example 174, (S)-7-chloro-5-(2-((4-cyclopropyl-6-oxopyridazin-1(6H)-yl)methyl)thieno[3,2-b]pyridin-7-yl)-4-(5-azaspiro[3.4]octan-7-yl)-2H-benzo[b][1,4]oxazin-3(4H)-one], less than 10 nM.
For `O=c1ccn(CC(F)(F)F)c(=O)n1Cc1cc2nccc(-c3cc(Cl)cc4c3N([C@@H]3CCNC3)CCC4)c2s1` [Example 56, (R)-3-((7-(6-chloro-1-(pyrrolidin-3-yl)-1,2,3,4-tetrahydroquinolin-8-yl)thieno[3,2-b]pyridin-2-yl)methyl)-1-(2,2,2-trifluoroethyl)pyrimidine-2,4(1H,3H)-dione] the value was less than 10 nM; for `CCN1CC[C@H](N2CCCc3cc(C#N)cc(-c4ccnc5cc(Cn6c(=O)ccn(CC(F)(F)F)c6=O)sc45)c32)C1` [Example 84, (S)-8-(2-((2,6-dioxo-3-(2,2,2-trifluoroethyl)-2,3-dihydropyrimidin-1(6H)-yl)methyl)thieno[3,2-b]pyridin-7-yl)-1-(1-ethylpyrrolidin-3-yl)-1,2,3,4-tetrahydroquinoline-6-carbonitrile], less than 10 nM; for `O=C1CCC(=O)N1Cc1cc2nccc(-c3cccc4c3N([C@H]3CCNC3)CCO4)c2s1` (single isomer, unassigned) [Example 111a], 10 to 100 nM.
`O=c1ccn(C2CC(F)(F)C2)c(=O)n1Cc1cc2nccc(-c3cc(Cl)cc4c3N([C@@H]3CNC5(CCC5)C3)CCC4)c2s1` [Example 146, (S)-3-((7-(6-chloro-1-(5-azaspiro[3.4]octan-7-yl)-1,2,3,4-tetrahydroquinolin-8-yl)thieno[3,2-b]pyridin-2-yl)methyl)-1-(3,3-difluorocyclobutyl)pyrimidine-2,4(1H,3H)-dione] had an IC50 of less than 10 nM.
`O=c1ccn(C(F)F)c(=O)n1Cc1cc2nccc(-c3cc(Cl)cc4c3N([C@@H]3CNC5(CCC5)C3)CCC4)c2s1` [Example 149, (S)-3-((7-(6-chloro-1-(5-azaspiro[3.4]octan-7-yl)-1,2,3,4-tetrahydroquinolin-8-yl)thieno[3,2-b]pyridin-2-yl)methyl)-1-(difluoromethyl)pyrimidine-2,4(1H,3H)-dione] came in with an IC50 of less than 10 nM.
For `O=C1CCC(=O)N1Cc1cc2nccc(-c3cc(Cl)cc4c3N(C3CN(C5CCC5)C3)CCC4)c2s1` [Example 3, 1-((7-(6-chloro-1-(1-cyclobutylazetidin-3-yl)-1,2,3,4-tetrahydroquinolin-8-yl)thieno[3,2-b]pyridin-2-yl)methyl)pyrrolidine-2,5-dione] the value was 10 to 100 nM; for `CN1C(=O)N(Cc2cc3nccc(-c4cc(Cl)cc5c4N(C4CNC4)CCC5)c3s2)C(=O)C12CCC2` [Example 31, 7-((7-(1-(azetidin-3-yl)-6-chloro-1,2,3,4-tetrahydroquinolin-8-yl)thieno[3,2-b]pyridin-2-yl)methyl)-5-methyl-5,7-diazaspiro[3.4]octane-6,8-dione], 101 to 1000 nM.
`C[C@H]1C[C@@H](N2CCCc3cc(Cl)cc(-c4ccnc5cc(Cn6c(=O)ccn(CC(F)(F)F)c6=O)sc45)c32)CN1` (single isomer, unassigned) [Example 95a] registered an IC50 of less than 10 nM.
For `O=C1CCC(=O)N1Cc1cc2nccc(-c3cc(C(F)(F)F)cc4c3N([C@@H]3CNC5(CCC5)C3)CCC4)c2s1` [Example 163, (S)-1-((7-(1-(5-azaspiro[3.4]octan-7-yl)-6-(trifluoromethyl)-1,2,3,4-tetrahydroquinolin-8-yl)thieno[3,2-b]pyridin-2-yl)methyl)pyrrolidine-2,5-dione] the value was less than 10 nM; for `O=C1CCC(=O)N1Cc1cc2nccc(-c3cc(C(F)(F)F)cc4c3N([C@H]3CCNC3)CCC4)c2s1` (single isomer, unassigned) [Example 79], less than 10 nM.
To `N#Cc1cc2c(c(-c3ccnc4cc(Cn5c(=O)ccn(C6CC(F)(F)C6)c5=O)sc34)c1)N([C@@H]1CN[C@@H](CO)C1)CCC2` [Example 191, 8-(2-((3-(3,3-difluorocyclobutyl)-2,6-dioxo-2,3-dihydropyrimidin-1(6H)-yl)methyl)thieno[3,2-b]pyridin-7-yl)-1-((3S,5R)-5-(hydroxymethyl)pyrrolidin-3-yl)-1,2,3,4-tetrahydroquinoline-6-carbonitrile] belongs less than 10 nM; to `O=C1CCC(=O)N1Cc1cc2nccc(-c3cc(Cl)cc4c3N(C3CNC5(CC(F)C5)C3)CCC4)c2s1` (single isomer, unassigned) [Example 177a], less than 10 nM.
Compound `O=c1ccn(C2CC2)c(=O)n1Cc1cc2nccc(-c3cc(Cl)cc4c3N([C@@H]3CNC5(CCC5)C3)CCC4)c2s1` [Example 148, (S)-3-((7-(6-chloro-1-(5-azaspiro[3.4]octan-7-yl)-1,2,3,4-tetrahydroquinolin-8-yl)thieno[3,2-b]pyridin-2-yl)methyl)-1-cyclopropylpyrimidine-2,4(1H,3H)-dione] showed an IC50 of less than 10 nM.
`N#Cc1cc2c(c(-c3ccnc4cc(Cn5c(=O)ccn(CC(F)(F)F)c5=O)sc34)c1)N([C@H]1CCN([C@@H]3CC[C@H]3O)C1)CCC2` (single isomer, unassigned) [Example 107a] returned a 50% inhibitory concentration (IC50) of less than 10 nM.
To `CC1(C)C2C(=O)N(Cc3cc4nccc(-c5cc(Cl)cc6c5N([C@@H]5CNC7(CCC7)C5)CCO6)c4s3)C(=O)C21` (stereo partly drawn) [Example 172, 3-((7-(7-chloro-4-((S)-5-azaspiro[3.4]octan-7-yl)-3,4-dihydro-2H-benzo[b][1,4]oxazin-5-yl)thieno[3,2-b]pyridin-2-yl)methyl)-6,6-dimethyl-3-azabicyclo[3.1.0]hexane-2,4-dione] belongs 10 to 100 nM.
